Measurements from PubChem BioAssay (NCI).
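These data come from cells grown in 96-well plates and exposed to compound for 48 hours at five concentrations. GI50 is the concentration that inhibits growth by half. The concentration for full growth arrest is given as TGI.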

Assays:
Test in all cases: DTP human tumour cell line panel, 48 h
[1] = tested on: 786-0 renal
[2] = tested on: A498 renal
[3] = tested on: A549 NSCLC
[4] = tested on: ACHN renal
[5] = tested on: BT-549 breast
[6] = tested on: CAKI-1 renal
[7] = tested on: CCRF-CEM leukemia
[8] = tested on: COLO 205 colon
[9] = tested on: DU-145 prostate
[10] = tested on: EKVX NSCLC
[11] = tested on: HCC-2998 colon
[12] = tested on: HCT-116 colon
[13] = tested on: HCT-15 colon
[14] = tested on: HL-60(TB) leukemia
[15] = tested on: HOP-62 NSCLC
[16] = tested on: HS 578T breast
[17] = tested on: HT29 colon
[18] = tested on: IGROV1 ovarian
[19] = tested on: K-562 leukemia
[20] = tested on: KM12 colon
[21] = tested on: LOX IMVI melanoma
[22] = tested on: M14 melanoma
[23] = tested on: MALME-3M melanoma
[24] = tested on: MDA-MB-231 breast
[25] = tested on: MDA-MB-435
[26] = tested on: NCI-H226 lung
[27] = tested on: NCI-H23 lung
[28] = tested on: NCI-H522 lung
[29] = tested on: NCI/ADR-RES ovarian
[30] = tested on: OVCAR-3 ovarian
[31] = tested on: OVCAR-4 ovarian
[32] = tested on: OVCAR-5 ovarian
[33] = tested on: OVCAR-8 ovarian
[34] = tested on: PC-3 prostate
[35] = tested on: RPMI-8226 leukemia
[36] = tested on: RXF 393 renal
[37] = tested on: SF-295 CNS
[38] = tested on: SF-539 CNS
[39] = tested on: SK-MEL-2 melanoma
[40] = tested on: SK-MEL-28 melanoma
[41] = tested on: SK-MEL-5 melanoma
[42] = tested on: SK-OV-3 ovarian
[43] = tested on: SN12C renal
[44] = tested on: SNB-75 CNS
[45] = tested on: SR leukemia
[46] = tested on: SW-620 colon
[47] = tested on: T-47D breast
[48] = tested on: TK-10 renal
[49] = tested on: U251 CNS
[50] = tested on: UACC-257 melanoma
[51] = tested on: UACC-62 melanoma
[52] = tested on: UO-31 renal

CO/N=C(\COc1ccc2oc(-c3ccccc3)cc(=O)c2c1)c1ccc(F)cc1
GI50 [1]: 21.3 µM | TGI [1]: 43.7 µM | GI50 [2]: 29.1 µM | TGI [2]: 82.9 µM | GI50 [3]: 20 µM | TGI [3]: 48.7 µM | GI50 [4]: 17.2 µM | TGI [4]: 34.5 µM | GI50 [5]: 29.6 µM | TGI [5]: > 100 µM | GI50 [6]: > 100 µM | TGI [6]: > 100 µM | GI50 [7]: > 100 µM | TGI [7]: > 100 µM | GI50 [8]: 59.5 µM | TGI [8]: > 100 µM | GI50 [9]: 25 µM | TGI [9]: 76.5 µM | GI50 [10]: 35.9 µM | TGI [10]: > 100 µM | GI50 [11]: 23.6 µM | TGI [11]: 54.4 µM | GI50 [12]: 20.3 µM | TGI [12]: 48.2 µM | GI50 [13]: 40.2 µM | TGI [13]: > 100 µM | GI50 [14]: 27.3 µM | TGI [14]: > 100 µM | GI50 [15]: 18.6 µM | TGI [15]: 35.2 µM | GI50 [16]: 23.2 µM | TGI [16]: 71 µM | GI50 [17]: 31.4 µM | TGI [17]: > 100 µM | GI50 [18]: 15.2 µM | TGI [18]: 35.9 µM | GI50 [19]: 81.2 µM | TGI [19]: > 100 µM | GI50 [20]: 46.9 µM | TGI [20]: > 100 µM | GI50 [21]: 25.2 µM | TGI [21]: 77.9 µM | GI50 [22]: 32.2 µM | TGI [22]: > 100 µM | GI50 [23]: 30.3 µM | TGI [23]: 67.1 µM | GI50 [24]: 18.7 µM | TGI [24]: 39 µM | GI50 [25]: > 100 µM | TGI [25]: > 100 µM | GI50 [26]: 29.7 µM | TGI [26]: > 100 µM | GI50 [27]: 23.1 µM | TGI [27]: 64.7 µM | GI50 [28]: 15.4 µM | TGI [28]: 40.5 µM | GI50 [29]: 21 µM | TGI [29]: 49.9 µM | GI50 [30]: > 100 µM | TGI [30]: > 100 µM | GI50 [31]: 22.3 µM | TGI [31]: 55.8 µM | GI50 [32]: 17.5 µM | TGI [32]: 39.1 µM | GI50 [33]: 21 µM | TGI [33]: 47.6 µM | GI50 [34]: 22.6 µM | TGI [34]: 57.3 µM | GI50 [35]: 24.6 µM | TGI [35]: > 100 µM | GI50 [36]: 15.8 µM | TGI [36]: 44.7 µM | GI50 [37]: > 100 µM | TGI [37]: > 100 µM | GI50 [38]: 20.9 µM | TGI [38]: 42.9 µM | GI50 [39]: 24.4 µM | TGI [39]: 73.3 µM | GI50 [40]: 48.2 µM | TGI [40]: > 100 µM | GI50 [41]: 31.3 µM | TGI [41]: 93.5 µM | GI50 [42]: 20 µM | TGI [42]: 44.8 µM | GI50 [43]: 16.9 µM | TGI [43]: 35 µM | GI50 [44]: 17.4 µM | TGI [44]: 40.6 µM | GI50 [45]: 15.7 µM | TGI [45]: > 100 µM | GI50 [46]: 30.3 µM | TGI [46]: > 100 µM | GI50 [47]: 21.5 µM | TGI [47]: 59.3 µM | GI50 [48]: 22.9 µM | TGI [48]: 53 µM | GI50 [49]: 18 µM | TGI [49]: 35.1 µM | GI50 [50]: 20.8 µM | TGI [50]: 46.7 µM | GI50 [51]: 21.9 µM | TGI [51]: 86.5 µM | GI50 [52]: 18.1 µM | TGI [52]: 42.1 µM
